pIC50: −log10 of the molar value. Where two headings read alike, the source gives them in different places.
Experiments:
Assay type in all cases: cell-based, human
HER2 = assay: Induction of HER2 degradation in MCF-7 cells (immunoblotting); settings: for pIC50: MCF-7 cells, 24-hr treatment, amount of drug needed to degrade 50% of the protein, average of three experiments, read-out: IC50 (HER-2)
Procedure: (§1) The human breast cancer cell lines MCF-7 and SKBR-3 were obtained from ATCC (Rockville, Md.), and maintained in DME/F12 (1:1) supplemented with 10% heat-inactivated fetal bovine serum (Gemini Bioproducts), 2 mM glutamine, and 50 units/ml each of penicillin and streptomycin, in a humidified 5% CO2/air atmosphere at 37° C.
(§2) Polyclonal antibodies against HER2 (c-18), Raf-1 (c-12), and P13 kinase (p85) (Z-8) were purchased from Santa Cruz Biotechnology, Inc. A monoclonal antibody against estrogen receptor (clone H-151) was obtained from StressGen Biotechnology Corp. A polyclonal antibody against the β-subunit of IGF-I receptor was kindly provided by Dr. L-H, Wang (Mt. Sinai Medical Center, New York).
(§3) After exposure, cells were washed twice with ice-cold phosphate-buffered saline (PBS), collected by scraping and transferred into microcentrifuge tubes. For immunoblotting (HER2, Raf-1, ER), cells were lysed with SDS lysis buffer (50 mM Tris-HCl, pH 7.5, 2% SDS, 10% glycerol, and 1 mM DTT), boiled for 10 min, and sonicated briefly; for immunoprecipitation (IGF-IR), cells were lysed with NP40 lysis buffer (50 mM Tris-HCl, pH 7.5, 1% Nonidet P-40, 150 mM NaCl, 1 mM Na3VO4, 40 mM NaF, 1 mM phenylmethylsulfonyl fluoride (PMSF) and 10 μg/ml each of aprotinin, leupeptin and soybean trypsin inhibitor) for 20 min at 4° C. Cell lysates were cleared by centrifuging at 14,000×g for 15 min at 4° C. in a microcentrifuge; the supernatants were collected as the experimental samples. Protein concentration in each sample was determined using the BCA kit (Pierce) according to the manufacture's instructions. For detecting IGF-IR, samples were immunoprecipitated with anti-IGF-IR antibody. Immunocomplexes were collected on protein A-Sepharose beads (Pharmacia), washed three times with the lysis buffer. Samples were subjected to SDS-PAGE, electrotransferred to nitrocellulose membranes, detected using the ECL kit (Amersham) according to the manufacturer's protocol, and quantitated using the Gel Doc 1000 (Bio-Rad).

Raf-1 = assay: Induction of Raf-1 degradation in MCF-7 cells (immunoblotting); settings: for pIC50: MCF-7 cells, 24-hr treatment, amount of drug needed to degrade 50% of the protein, average of three experiments
Procedure: as §1, §2, §3

MCF-7 cells = assay: MCF-7 cell growth inhibition (cell counting); settings: MCF-7 cells treated for four days, average of three experiments, read-out: IC50 (growth inh.)
Procedure: as §1
For cell growth experiments, cells were placed in 6-well tissue-culture plates (Corning) at 20,000 cells/well. Two days after plating, cells were treated with different concentrations of drugs or the vehicle DMSO (0.1%). MCF-7 cells were treated for four days; medium with the appropriate drug or vehicle was changed every 2 days; cells were trypsinized, collected and counted on a Coulter counter; IC50 for cell growth is designated as the amount of each drug needed to inhibit MCF-7 growth by 50% compared to the control vehicle.

| SMILES | pIC50 (HER2) | pIC50 (Raf-1) | pIC50 (MCF-7 cells; Homo sapiens, MCF7, 96 h) | Activity against HER2 (in words) (HER2; degradation in MCF-7 cells) | Selectivity / specificity for HER-2 over Raf-1 (HER2; degradation in MCF-7 cells, compared to GM) | Activity against Raf-1 (in words) (Raf-1; degradation in MCF-7 cells) | pIC50 (MCF-7 cells) |
| --- | --- | --- | --- | --- | --- | --- | --- |
| COC1C=CC=C(C)C(=O)NC2=CC(=O)C(NCCCCCCCCCNC3=C4CC(C)CC(OC)C(O)C(C)C=C(C)C(OC(N)=O)CC(OC)C=CC=C(C)C(=O)NC(=CC3=O)C4=O)=C(CC(C)CC(OC)C(O)C(C)C=C(C)C(OC(N)=O)C1)C2=O (stereo not drawn) [9 O———O] | 6.30 | 5.42 | 6.15 | – | – | – | – |
| COC1C=CC=C(C)C(=O)NC2=CC(=O)C(NCCCCCCCCCCCCNC3=C4CC(C)CC(OC)C(O)C(C)C=C(C)C(OC(N)=O)CC(OC)C=CC=C(C)C(=O)NC(=CC3=O)C4=O)=C(CC(C)CC(OC)C(O)C(C)C=C(C)C(OC(N)=O)C1)C2=O (stereo not drawn) [12 O———O] | 6.12 | 5.46 | 6.15 | – | – | – | – |
| COC1C=CC=C(C)C(=O)NC2=CC(=O)C(NCCCCN)=C(CC(C)CC(OC)C(O)C(C)C=C(C)C1OC(N)=O)C2=O (stereo not drawn) [ButylaminoGM] | 7.10 | 6.46 | – | modestly weaker than GM | not selective | modestly weaker than GM | 6.22 |
| COC1=C2C[C@@H](C)C[C@H](OC)[C@H](O)[C@@H](C)/C=C(\C)[C@H](OC(N)=O)[C@@H](OC)/C=C\C=C(/C)C(=O)NC(=CC1=O)C2=O [GM, Geldanamycin, reference compound] | 7.35 | 6.70 | 7.60 | – | – | – | – |
| COC1C=CC=C(C)C(=O)NC2=CC(=O)C(NCCCCCCCNC3=C4CC(C)CC(OC)C(O)C(C)C=C(C)C(OC(N)=O)CC(OC)C=CC=C(C)C(=O)NC(=CC3=O)C4=O)=C(CC(C)CC(OC)C(O)C(C)C=C(C)C(OC(N)=O)C1)C2=O (stereo not drawn) [GMD-7c] | 7.15 | 6.30 | 6.22 | – | – | – | – |
